Patent publication US11279687B2, “Compounds and compositions for the inhibition of NAMPT” (Valo Health, Inc., priority 2010, dated 2022)
pIC50: −log10 of the molar value. Where two headings read alike, the source gives them in different places.

How the values were obtained:
A2780 cells = assay: In-vitro cell proliferation assay (SRB), A2780 cells; assay type: cell-based; conditions: A2780 cells, 72 hours, SRB, read-out: A2780 IC50;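 further: viable cell number read as SRB absorbance, background from media-only wells subtracted, IC50 interpolated from percent inhibition at two bracketing compound concentrations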
NAMPT = NAMPT (Homo sapiens (Human), UniProt P43490); assay: NAMPT biochemical inhibition assay (NMN quantified by mass spectrometry); conditions: NAMPT biochemical inhibition; read-out: Biochem IC50
Chain of NAMPT (P43490 whole entry): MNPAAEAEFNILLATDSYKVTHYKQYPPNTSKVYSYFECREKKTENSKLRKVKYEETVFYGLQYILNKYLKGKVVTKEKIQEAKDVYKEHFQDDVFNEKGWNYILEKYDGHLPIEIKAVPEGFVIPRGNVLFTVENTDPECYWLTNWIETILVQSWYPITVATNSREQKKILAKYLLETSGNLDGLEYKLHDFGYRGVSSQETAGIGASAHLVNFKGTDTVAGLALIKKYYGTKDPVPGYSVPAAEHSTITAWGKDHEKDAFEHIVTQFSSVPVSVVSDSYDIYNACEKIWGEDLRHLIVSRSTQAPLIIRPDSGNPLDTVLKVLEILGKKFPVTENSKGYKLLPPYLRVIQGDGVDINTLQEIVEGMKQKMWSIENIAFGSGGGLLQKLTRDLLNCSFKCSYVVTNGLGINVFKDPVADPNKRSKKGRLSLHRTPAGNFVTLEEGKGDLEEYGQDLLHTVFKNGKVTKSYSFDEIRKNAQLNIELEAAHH

Row | Compound | pIC50 (A2780 cells; Homo sapiens, A2780, 72 h) | pIC50 (NAMPT) | pIC50 (A2780 cells)
1 | CCOc1ccc(S(=O)(=O)c2ccc(NC(=O)NCc3cccnc3)cc2)cc1F [3-{4-[(4-ethoxy-3-fluorobenzene)sulfonyl]phenyl}-1-(pyridin-3-ylmethyl)urea] | 7.66 | 8.92 | –
2 | CCOc1ccc(S(=O)(=O)c2ccc(NC(=O)NCc3cccnc3)cc2)cc1 [3-{4-[(4-ethoxybenzene)sulfonyl]phenyl}-1-(pyridin-3-ylmethyl)urea] | 6.00 to 7.00 | 8.66 | –
3 | CCc1ccc(S(=O)(=O)c2ccc(NC(=O)NCc3cccnc3)cc2)cc1 [3-{4-[(4-ethylbenzene)sulfonyl]phenyl}-1-(pyridin-3-ylmethyl)urea] | 6.27 | 8.52 | –
4 | COc1cc(F)ccc1S(=O)(=O)c1ccc(NC(=O)NCc2cccnc2)cc1 [3-{4-[(4-fluoro-2-methoxybenzene)sulfonyl]phenyl}-1-(pyridin-3-ylmethyl)urea] | 7.55 | 8.70 | –
5 | COc1cc(F)ccc1NS(=O)(=O)c1ccc(NC(=O)NCc2cccnc2)cc1 [3-{4-[(4-fluoro-2-methoxyphenyl)sulfamoyl]phenyl}-1-(pyridin-3-ylmethyl)urea] | 6.94 | 8.15 | –
6 | Cc1cc(F)ccc1S(=O)(=O)c1ccc(NC(=O)NCc2cccnc2)cc1 [3-{4-[(4-fluoro-2-methylbenzene)sulfonyl]phenyl}-1-(pyridin-3-ylmethyl)urea] | 6.54 | 8.30 | –
7 | COc1cc(S(=O)(=O)c2ccc(NC(=O)NCc3cccnc3)cc2)ccc1F [3-{4-[(4-fluoro-3-methoxybenzene)sulfonyl]phenyl}-1-(pyridin-3-ylmethyl)urea] | 7.35 | 8.43 | –
8 | Cc1cc(S(=O)(=O)c2ccc(NC(=O)NCc3cccnc3)cc2)ccc1F [3-{4-[(4-fluoro-3-methylbenzene)sulfonyl]phenyl}-1-(pyridin-3-ylmethyl)urea] | 6.00 to 7.00 | 8.43 | –
9 | CS(=O)(=O)c1ccc(S(=O)(=O)c2ccc(NC(=O)NCc3cccnc3)cc2)cc1 [3-{4-[(4-methanesulfonylbenzene)sulfonyl]phenyl}-1-(pyridin-3-ylmethyl)urea] | 7.04 | 8.70 | –
10 | COc1ccc(S(=O)(=O)c2ccc(NC(=O)NCc3cccnc3)cc2)c(C)c1 [3-{4-[(4-methoxy-2-methylbenzene)sulfonyl]phenyl}-1-(pyridin-3-ylmethyl)urea] | 6.45 | 8.10 | –
11 | COc1c(C)cc(S(=O)(=O)c2ccc(NC(=O)NCc3cccnc3)cc2)cc1C [3-{4-[(4-methoxy-3,5-dimethylbenzene)sulfonyl]phenyl}-1-(pyridin-3-ylmethyl)urea] | 8.05 | 8.68 | –
12 | COc1ccc(S(=O)(=O)c2ccc(NC(=O)NCc3cccnc3)cc2)cc1 [3-{4-[(4-methoxybenzene)sulfonyl]phenyl}-1-(pyridin-3-ylmethyl)urea] | 6.00 to 7.00 | 8.62 | –
13 | Cc1ccc(S(=O)(=O)c2ccc(NC(=O)NCc3cccnc3)cc2)cc1 [3-{4-[(4-methylbenzene)sulfonyl]phenyl}-1-(pyridin-3-ylmethyl)urea] | 6.85 | 8.36 | –
14 | CC(C)(C)c1ccc(NS(=O)(=O)c2ccc(NC(=O)NCc3cccnc3)cc2)c(Cl)c1 [3-{4-[(4-tert-butyl-2-chlorophenyl)sulfamoyl]phenyl}-1-(pyridin-3-ylmethyl)urea] | 7.01 | 8.85 | –
15 | COc1ccc(C(C)=O)cc1S(=O)(=O)c1ccc(NC(=O)NCc2cccnc2)cc1 [3-{4-[(5-acetyl-2-methoxybenzene)sulfonyl]phenyl}-1-(pyridin-3-ylmethyl)urea] | 8.77 | 8.89 | –
16 | COc1ccc(Cl)cc1S(=O)(=O)c1ccc(NC(=O)NCc2cccnc2)cc1 [3-{4-[(5-chloro-2-methoxybenzene)sulfonyl]phenyl}-1-(pyridin-3-ylmethyl)urea] | 7.68 | 8.30 | –
17 | Cc1ccc(Cl)cc1NS(=O)(=O)c1ccc(NC(=O)NCc2cccnc2)cc1 [3-{4-[(5-chloro-2-methylphenyl)sulfamoyl]phenyl}-1-(pyridin-3-ylmethyl)urea] | 7.46 | 9.00 | –
18 | COc1ccc(F)cc1S(=O)(=O)c1ccc(NC(=O)NCc2cccnc2)cc1 [3-{4-[(5-fluoro-2-methoxybenzene)sulfonyl]phenyl}-1-(pyridin-3-ylmethyl)urea] | 8.40 | 8.70 | –
19 | COc1ccc(F)cc1NS(=O)(=O)c1ccc(NC(=O)NCc2cccnc2)cc1 [3-{4-[(5-fluoro-2-methoxyphenyl)sulfamoyl]phenyl]-1-(pyridin-3-ylmethyl)urea] | 7.48 | 9.00 | –
20 | Cc1ccc(F)cc1S(=O)(=O)c1ccc(NC(=O)NCc2cccnc2)cc1 [3-{4-[(5-fluoro-2-methylbenzene)sulfonyl]phenyl}-1-(pyridin-3-ylmethyl)urea] | 6.31 | 8.40 | –
21 | COc1ccc(C)c(NS(=O)(=O)c2ccc(NC(=O)NCc3cccnc3)cc2)c1 [3-{4-[(5-methoxy-2-methylphenyl)sulfamoyl]phenyl}-1-(pyridin-3-ylmethyl)urea] | 7.10 | 8.70 | –

Row | Compound | pIC50 (A2780 cells; Homo sapiens, A2780, 72 h) | pIC50 (NAMPT) | pIC50 (A2780 cells)
22 | CCN(Cc1ccccc1)S(=O)(=O)c1ccc(NC(=O)NCc2cccnc2)cc1 [3-{4-[benzyl(ethyl)sulfamoyl]phenyl}-1-(pyridin-3-ylmethyl)urea] | 8.15 | 9.05 | –
23 | CN(Cc1ccccc1)S(=O)(=O)c1ccc(NC(=O)NCc2cccnc2)cc1 [3-{4-[benzyl(methyl)sulfamoyl]phenyl}-1-(pyridin-3-ylmethyl)urea] | 6.97 | 8.96 | –
24 | CC(C)N(Cc1ccccc1)S(=O)(=O)c1ccc(NC(=O)NCc2cccnc2)cc1 [3-{4-[benzyl(propan-2-yl)sulfamoyl]phenyl}-1-(pyridin-3-ylmethyl)urea] | 7.59 | 8.70 | –
25 | CCN(C1CCCCC1)S(=O)(=O)c1ccc(NC(=O)NCc2cccnc2)cc1 [3-{4-[cyclohexyl(ethyl)sulfamoyl]phenyl}-1-(pyridin-3-ylmethyl)urea] | 6.91 | 8.30 | –
26 | O=C(NCc1ccc[n+]([O-])c1)Nc1ccc([S+]([O-])c2ccc(Cl)cc2)cc1 (stereo not shown) [3-{[({4-[(4-chlorobenzene)sulfinyl]phenyl}carbamoyl)amino]methyl}pyridin-1-ium-1-olate] | – | 6.35 | 4.69
27 | O=C(NCc1ccc[n+]([O-])c1)Nc1ccc(S(=O)(=O)c2ccc(Cl)cc2)cc1 [3-{[({4-[(4-chlorobenzene)sulfonyl]phenyl}carbamoyl)amino]methyl}pyridin-1-ium-1-olate] | – | 6.14 | < 4.52
28 | O=C(NCc1ccc2nccn2c1)Nc1ccc(S(=O)(=O)N2CC3CCC(C2)O3)cc1 [3-{imidazo[1,2-a]pyridin-6-ylmethyl}-1-(4-{8-oxa-3-azabicyclo[3.2.1]octane-3-sulfonyl}phenyl)urea] | 8.22 | 8.10 | –
29 | O=C(Nc1cccnc1)c1ccc(S(=O)(=O)c2ccccc2)cc1 [4-(benzenesulfonyl)-N-(pyridin-3-yl)benzamide] | 5.56 | 5.72 | –
30 | O=C(NCc1cccnc1)c1ccc(S(=O)(=O)c2ccccc2)cc1 [4-(benzenesulfonyl)-N-(pyridin-3-ylmethyl)benzamide] | 6.67 | 7.09 | –
31 | O=C(Nc1ccncc1)c1ccc(S(=O)(=O)c2ccccc2)cc1 [4-(benzenesulfonyl)-N-(pyridin-4-yl)benzamide] | 5.88 | 6.19 | –
32 | O=C(NCc1ccn2ccnc2c1)c1ccc(S(=O)(=O)c2ccccc2)cc1 [4-(benzenesulfonyl)-N-{imidazo[1,2-a]pyridin-7-ylmethyl}benzamide] | 7.59 | 7.51 | –
33 | O=C(NCc1ccc2nccn2c1)c1ccc(S(=O)(=O)c2ccccc2Cl)cc1 [4-[(2-chlorobenzene)sulfonyl]-N-{imidazo[1,2-a]pyridin-6-ylmethyl}benzamide] | 8.41 | 7.71 | –
34 | O=C(NCc1ccc2nccn2c1)c1ccc(S(=O)(=O)c2cc(F)cc(F)c2)cc1 [4-[(3,5-difluorobenzene)sulfonyl]-N-{imidazo[1,2-a]pyridin-6-ylmethyl}benzamide] | 8.24 | 7.75 | –
35 | O=C(NCc1ccc2nccn2c1)c1ccc(S(=O)(=O)c2cccc(Cl)c2)cc1 [4-[(3-chlorobenzene)sulfonyl]-N-{imidazo[1,2-a]pyridin-6-ylmethyl}benzamide] | 8.19 | 7.92 | –
36 | O=C(NCc1ccc2nccn2c1)c1ccc(S(=O)(=O)Nc2cccc(Cl)c2)cc1 [4-[(3-chlorophenyl)sulfamoyl]-N-{imidazo[1,2-a]pyridin-6-ylmethyl}benzamide] | 8.15 | 6.86 | –
37 | COc1ccc(Cl)cc1NS(=O)(=O)c1ccc(C(=O)NCCc2cccnc2)cc1 [4-[(5-chloro-2-methoxyphenyl)sulfamoyl]-N-[2-(pyridin-3-yl)ethyl]benzamide] | 7.51 | 5.33 | –
38 | COc1ccc(Cl)cc1NS(=O)(=O)c1ccc(C(=O)NCc2ccc3nccn3c2)cc1 [4-[(5-chloro-2-methoxyphenyl)sulfamoyl]-N-{imidazo[1,2-a]pyridin-6-ylmethyl}benzamide] | 8.64 | 8.67 | –
39 | NC(=O)c1ccc(CNC(=O)Nc2ccc(S(=O)(=O)N3CCCCC3)cc2)cn1 [5-[({[4-(piperidine-1-sulfonyl)phenyl]carbamoyl}amino)methyl]pyridine-2-carboxamide] | 4.56 | < 5.00 | –
40 | CCN(CC)C(=O)[C@H]1CCCN(S(=O)(=O)c2ccc(NC(=O)NCc3cccnc3)cc2)C1 [(3S)-N,N-diethyl-1-[(4-{[(pyridin-3-ylmethyl)carbamoyl]amino}benzene)sulfonyl]piperidine-3-carboxamide] | – | 8.22 | 7.60
41 | CCN(CC)C(=O)c1ccccc1NS(=O)(=O)c1ccc(NC(=O)NCc2cccnc2)cc1 [N,N-diethyl-2-[(4-{[(pyridin-3-ylmethyl)carbamoyl]amino]benzene)sulfonamido]benzamide] | – | 8.10 | 8.22
